Experimental data published in patent US20080152589A1, “Diagnostics and Therapeutics of Neurological Disease” (priority 2006, published 2008).

Key:
[1] = self-administered questionnaire on lithium-induced side-effects, stratified by GSK3B and MAPT haplotype; format: in vivo, human; settings: for Odds Ratio, hand tremor present vs absent (pooled High GSKΔexon9 and Low GSKΔexon9+11 haplotypes vs others): lithium treatment; for mean overall side-effect score (SE score): patients administered lithium, 24 items, maximum total score 96
Procedure: Participants (n=84) suffering from a neurological disease who had been administered lithium as a therapeutic were assessed for the prevalence and pattern of lithium-induced side-effects using a self-administered questionnaire. This questionnaire was a modified version of the data collection form from a clinical trial, asking participants to rate 24 side-effect items as ‘Not present’, ‘Mild’, ‘Moderate’, ‘Severe’ and ‘Very Severe’. The 24 items listed include: nausea, vomiting, diarrhea, constipation, weight gain, weight loss, dizziness or light-headedness, blurred vision, hand tremor, muscle weakness, slurred speech, lack of coordination or unsteady gait, poor concentration mental slowing or confusion, forgetfulness or difficulty with memory/recall, drowsiness or sleepiness, worsening mood symptoms, skin rash, hair loss, thirst, dry mouth, metallic taste in mouth, loss of ability to taste food, need to pass urine much more frequently or more urgently, urinary incontinence. An overall side-effect score (SE score) was calculated for each patient based on the above 24 items and their respective grading. A score of zero was given for an absent side effect and increased to a score of 4 for a very severe side effect to give a maximum total score of 96 for each patient.
Each individual was genotyped and classified as having 0, 1 or 2 copies of the disease ‘risk’ GSK3B haplotypes (A-T-C, T-C-C and A-C-T) based on the three functional polymorphisms rs375557, rs334558 and rs6438552. In the subset of patients having a GSK-3B ‘risk’ haplotype and at least one H2 MAPT haplotype, a lower SE score was observed (12.3±2.2) compared to patients with no ‘risk’ haplotype (14.6±2.0).
The relationship between the ‘risk’ haplotypes in GSK3B and common side effect of lithium therapy, hand tremor, was then examined, the results of which are shown in Table 8. […] This information is pertinent, because lithium, which is a therapeutic agent for a number of disorders including bipolar affective disorders and Alzheimer's disease, has significant side effects. Accordingly, assays that detect the presence of a GSK-3B ‘risk’ haplotype optionally combined with detection of a MAPT H2 haplotype are useful for determining subjects likely to respond to treatment and/or that are unlikely to develop a side-effect as a result of treatment.

[2] = biological target: endogenous Tau of COS-7 cells; test: cell-based or functional assay

**Q.** Which “Odds Ratio, hand tremor present vs absent (pooled High GSKΔexon9 and Low GSKΔexon9+11 haplotypes vs others)” value ([1]; MAPT H1/H1) does the source give for `[Li]` [lithium] here?
**A.** 1.32

**Q.** And the “Odds Ratio, hand tremor present vs absent (pooled High GSKΔexon9 and Low GSKΔexon9+11 haplotypes vs others)” value ([1]; MAPT H1/H2 + H2/H2 (at least one H2 haplotype))?
**A.** 0.24

**Q.** What about the “Odds Ratio, hand tremor present vs absent (pooled High GSKΔexon9 and Low GSKΔexon9+11 haplotypes vs others)” value ([1]; all MAPT haplotypes) of the same compound?
**A.** 0.57

**Q.** And the “mean overall side-effect score (SE score)” value ([1]; GSK-3B 'risk' haplotype and at least one H2 MAPT haplotype)?
**A.** 12.3±2.2

**Q.** What about the “mean overall side-effect score (SE score)” value ([1]; no 'risk' haplotype) of the same compound?
**A.** 14.6±2.0

**Q.** For “GSKΔexon9+11 (GSK-3β splice isoform lacking exons 9 and 11) (from UniProt P49841 1-420) (enzyme)”, which levels of Tau [pSer396] by ELISA in transfected COS-7 cells, compared with the other GSK-3β cDNAs [2] is on record?
**A.** 2.5 fold
